# According to patent US10945951B2, “Apparatus for compound dispersion” (Biogen MA Inc., priority 2014, dated 2021):
# What was measured:
# [1] = Live imaging of intrathecally injected Gd-DTPA in dog; assay type: in vivo
# Procedure: For this experiment, an adult male two-year-old beagle was intrathecally injected at the L4-L5 space and live imaging was performed under anesthesia for five hours.
# FIGS. 15C-15G show the signal counts corresponding to the presence of Gd-DTPA over the five hour monitoring period. The various monitored locations included the hippocampus, spinal column, substantia nigra, cortex, and striatum.
# [2] = PET imaging of distribution of lumbar intrathecally injected 64Cu-DOTA, bolus volume and respiratory vest force; assay type: in vivo, Cynomolgus monkeys; details: lumbar intrathecal
# Procedure: The ability of a time varying force applied to the torso of a patient and increased bolus volumes to enhance CNS exposure of intrathecally injected compounds was tested in cynomolgus monkeys. Specifically, live whole animal positron emission tomography (PET) imaging was used to monitor the distribution of intrathecally injected ^64Cu-DOTA given as a compound surrogate. This approach allowed the direct imaging of the impact of the convective force on compound spread in CSF and the exposure of the primate CNS to the compound. During the experiments, Cynomolgus monkeys were given a lumbar intrathecal injection of ^64Cu-DOTA in a volume of either 0.36 ml (about 3% of the total CSF volume) or 1.86 ml (about 15% of the total CSF volume), see FIG. 6. The 3% total CSF volume was chosen to mimic a typical lumbar intrathecal injection volume of about 5 ml that is used clinically. Following lumbar intrathecal injection, the animals were placed in a respiratory vest for 20 minutes. The vest was turned on for 20 minutes only for those animals in which the effect of the time varying force enhanced convection was tested. Animals wearing the vest without activating the time varying force feature served as controls. Animals were then imaged with PET scanning for a time window of 30-60 min post dosing.
# [3] = SPECT imaging of two probes injected in a single bolus into lumbar cistern and cisterna magna; assay type: in vivo, rat; details: single 20 ml bolus, lumbar cistern and cisterna magna injection
# Procedure: Two different probes including different isotopes were injected via a single […] bolus into rodents and then imaged at different energies. […] FIG. 8B depicts a structure of the second mitochondria targeting probe ^99mTc-Sestamibi. The bolus was injected into the lumbar cistern and the cisterna magna to help distinguish uptake into interstitial spaces versus uptake into intracellular compartments, see FIG. 8C. […] Consequently, it is apparent that the cell affinity of a compound for the structures and tissue within the CNS should be considered when determining the optimal parameters, such as injection site, bolus volume, and the applied forces, needed to ensure a compound reaches a desired target site.
# [4] = 20 μl bolus, intrathecal
# Procedure: The same amount of each probe was used in each injected bolus. However, the total bolus volumes for the separate injections were 20 μl and 30 μl followed by a 40 μl saline flush. The boluses were injected intrathecally into rodents and the concentration of the two probes was monitored at the lumbar, thoracic, and cervical regions.
molecule,measurement,setting,value
O=C([O-])CN(CCN(CC(=O)[O-])CC(=O)O)CCN(CC(=O)[O-])CC(=O)O.[Gd+3] [Gd-DTPA],"signal intensity over time in hippocampus, spinal column, substantia nigra, cortex and striatum","[1]; intrathecal injection at L4-L5, five hour monitoring period",increase in the measured signal intensity over time
same,location in the brain (cellular uptake vs interstitial spaces),"[1]; intrathecal injection at L4-L5, live imaging five hours",not taken up into the cells but instead was located in the interstitial spaces of the brain
O=C([O-])CN1CCN(CC(=O)O)CCN(CC(=O)[O-])CCN(CC(=O)O)CC1.[64Cu+2] [^64Cu-DOTA],CNS exposure / compound spread in CSF,"[2]; 3% CSF volume (0.36 ml), respiratory vest turned on 20 minutes, PET 30-60 min post dosing","the entire spinal cord, and brainstem displayed exposure"
same,CNS exposure / compound spread in CSF,"[2]; 3% CSF volume (0.36 ml), vest not turned on, PET 30-60 min post dosing",only reached the lower thoracic spinal cord
same,CNS exposure / compound spread in CSF,"[2]; 15% CSF volume (1.86 ml), combined with time varying forces of the vest",greatest rostral spread
same,CNS exposure / compound spread in CSF,"[2]; 15% CSF volume (1.86 ml), vest not activated, PET 30-60 min post dosing",exposure over the entire spinal cord and portions of the brainstem
[C-]#[N+]CC(C)(C)OC.[C-]#[N+]CC(C)(C)OC.[C-]#[N+]CC(C)(C)OC.[C-]#[N+]CC(C)(C)OC.[C-]#[N+]CC(C)(C)OC.[C-]#[N+]CC(C)(C)OC.[Tc] [^99mTc-Sestamibi],distribution along the CNS,[3],showed very little distribution along the CNS
same,concentration in the lumbar region at injection,[4],initially high concentration
same,concentration over time in the thoracic and cervical regions,[4],did not increase
^111In-DTPA,distribution along the CNS,[3],showed distribution from the injection site towards the head of the rodent along the CNS
